Results taken from patent US9458153B2, “Dihydroquinolizinones for the treatment and prophylaxis of hepatitis B virus infection” (Hoffmann-La Roche Inc., priority 2014, dated 2016).

test system: HBsAg; experiment: HBsAg assay (chemiluminescence immunoassay of secreted HBsAg in HepG2.2.15 culture supernatant); assay type: cell-based, HBV; conditions: HBsAg secretion reduced by 50% vs no drug control; HepG2.2.15 cells; CLIA kit
In short: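 IC50 came from dose-response curves of HBsAg in culture supernatant, measured semi-quantitatively by chemiluminescent immunoassay. The HBV-producing HepG2.2.15 line was dosed in duplicate with a three-fold compound dilution series, with DMSO at 1% final and DMSO alone as the no-drug control.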

| SMILES | IC50 |
| --- | --- |
| COCCCOc1cc2c(cc1Cl)-c1cc(=O)c(C(=O)O)cn1C(C(C)(C)C)C2 (single isomer, unassigned; (-)) [Example 204, (−)-6-tert-butyl-10-chloro-9-(3-methoxypropoxy)-2-oxo-6,7-dihydrobenzo[a]quinolizine-3-carboxylic acid] | 140 nM |
| COCCCOc1cc2c(cc1Cl)-c1cc(=O)c(C(=O)O)cn1C(C1(C)CC1)C2 (single isomer, unassigned; (-)) [Example 207, (−)-10-chloro-9-(3-methoxypropoxy)-6-(1-methylcyclopropyl)-2-oxo-6,7-dihydrobenzo[a]quinolizine-3-carboxylic acid] | 40 nM |
| COCCCOc1cc2c(cc1OC)-c1cc(=O)c(C(=O)O)cn1C(C1(C)CC1)C2 (single isomer, unassigned; (-)) [Example 210, (−)-10-methoxy-9-(3-methoxypropoxy)-6-(1-methylcyclopropyl)-2-oxo-6,7-dihydrobenzo[a]quinolizine-3-carboxylic acid] | 92 nM |
| COCCCOc1cc2c(c(F)c1F)-c1cc(=O)c(C(=O)O)cn1C(C(C)C)C2 (single isomer, unassigned; (-)) [Example 215, (−)-10,11-difluoro-6-isopropyl-9-(3-methoxypropoxy)-2-oxo-6,7-dihydrobenzo[a]quinolizine-3-carboxylic acid] | 1140 nM |
| CCC1Cc2cc(OCc3ccccc3)c(OC)cc2-c2cc(=O)c(C(=O)O)cn21 (stereo not drawn) [Example 8, 9-benzyloxy-6-ethyl-10-methoxy-2-oxo-6,7-dihydrobenzo[a]quinolizine-3-carboxylic acid] | 150 nM |
| CCC1Cc2cc(OCC(C)(C)CO)c(OC)cc2-c2cc(=O)c(C(=O)O)cn21 (stereo not drawn) [Example 22, 6-ethyl-9-(3-hydroxy-2,2-dimethyl-propoxy)-10-methoxy-2-oxo-6,7-dihydrobenzo[a]quinolizine-3-carboxylic acid] | 39 nM |
| CCC1Cc2cc(OCCOC)c(OC)cc2-c2cc(=O)c(C(=O)O)cn21 (stereo not drawn) [Example 27, 6-ethyl-10-methoxy-9-(2-methoxyethoxy)-2-oxo-6,7-dihydrobenzo[a]quinolizine-3-carboxylic acid] | 56 nM |
| CCOc1cc2c(cc1OC)-c1cc(=O)c(C(=O)O)cn1C(CC)C2 (stereo not drawn) [Example 36, 9-ethoxy-6-ethyl-10-methoxy-2-oxo-6,7-dihydrobenzo[a]quinolizine-3-carboxylic acid] | 53 nM |
| CCC1Cc2cc(OCCCOC)c(OC)cc2-c2cc(=O)c(C(=O)O)cn21 (stereo not drawn) [Example 39, 6-ethyl-10-methoxy-9-(3-methoxypropoxy)-2-oxo-6,7-dihydrobenzo[a]quinolizine-3-carboxylic acid] | 16 nM |
| CCOCCOc1cc2c(cc1OC)-c1cc(=O)c(C(=O)O)cn1C(CC)C2 (stereo not drawn) [Example 42, 9-(2-ethoxyethoxy)-6-ethyl-10-methoxy-2-oxo-6,7-dihydrobenzo[a]quinolizine-3-carboxylic acid] | 57 nM |
| CCC1Cc2cc(OCC(F)F)c(OC)cc2-c2cc(=O)c(C(=O)O)cn21 (stereo not drawn) [Example 45, 9-(2,2-difluoroethoxy)-6-ethyl-10-methoxy-2-oxo-6,7-dihydrobenzo[a]quinolizine-3-carboxylic acid] | 104 nM |
| CCC1Cc2cc(OCC3CCOCC3)c(OC)cc2-c2cc(=O)c(C(=O)O)cn21 (stereo not drawn) [Example 48, 6-ethyl-10-methoxy-2-oxo-9-(tetrahydropyran-4-ylmethoxy)-6,7-dihydrobenzo[a]quinolizine-3-carboxylic acid] | 24 nM |

same assay, conditions: Hepatitis B virus, HepG2.2.15, HBsAg secretion reduced by 50% vs no drug control; HepG2.2.15 cells; CLIA kit

| SMILES | IC50 |
| --- | --- |
| COc1cc2c(cc1OCc1ccccc1)CC(C)n1cc(C(=O)O)c(=O)cc1-2 (stereo not drawn) [Example 1, 9-benzyloxy-10-methoxy-6-methyl-2-oxo-6,7-dihydrobenzo[a]quinolizine-3-carboxylic acid] | 13 nM |
| CCOc1cc2c(cc1OC)-c1cc(=O)c(C(=O)O)cn1C(C)C2 (stereo not drawn) [Example 4, 9-ethoxy-10-methoxy-6-methyl-2-oxo-6,7-dihydrobenzo[a]quinolizine-3-carboxylic acid] | 98 nM |
| CCC1Cc2cc(OCCc3ccccc3)c(OC)cc2-c2cc(=O)c(C(=O)O)cn21 (stereo not drawn) [Example 14, 6-ethyl-10-methoxy-2-oxo-9-(2-phenylethoxy)-6,7-dihydrobenzo[a]quinolizine-3-carboxylic acid] | 14 nM |
| CCCCOc1cc2c(cc1OC)-c1cc(=O)c(C(=O)O)cn1C(CC)C2 (stereo not drawn) [Example 15, 9-butoxy-6-ethyl-10-methoxy-2-oxo-6,7-dihydrobenzo[a]quinolizine-3-carboxylic acid] | 16 nM |
| CCC1Cc2cc(OCCC3CCCCC3)c(OC)cc2-c2cc(=O)c(C(=O)O)cn21 (stereo not drawn) [Example 16, 9-(2-cyclohexylethoxy)-6-ethyl-10-methoxy-2-oxo-6,7-dihydrobenzo[a]quinolizine-3-carboxylic acid] | 15 nM |
| C#CCOc1cc2c(cc1OC)-c1cc(=O)c(C(=O)O)cn1C(CC)C2 (stereo not drawn) [Example 17, 6-ethyl-10-methoxy-2-oxo-9-prop-2-ynoxy-6,7-dihydrobenzo[a]quinolizine-3-carboxylic acid] | 190 nM |
| CCC1Cc2cc(OCC(=O)N3CCCC3)c(OC)cc2-c2cc(=O)c(C(=O)O)cn21 (stereo not drawn) [Example 18, 6-ethyl-10-methoxy-2-oxo-9-(2-oxo-2-pyrrolidin-1-yl-ethoxy)-6,7-dihydrobenzo[a]quinolizine-3-carboxylic acid] | 9470 nM |
| CCC1Cc2cc(OCCOCCOC)c(OC)cc2-c2cc(=O)c(C(=O)O)cn21 (stereo not drawn) [Example 19, 6-ethyl-10-methoxy-9-[2-(2-methoxyethoxyl)ethoxy]-2-oxo-6,7-dihydrobenzo[a]quinolizine-3-carboxylic acid] | 250 nM |
| CCC1Cc2cc(OCCN3CCOCC3)c(OC)cc2-c2cc(=O)c(C(=O)O)cn21 (stereo not drawn) [Example 20, 6-ethyl-10-methoxy-9-(2-morpholinoethoxy)-2-oxo-6,7-dihydrobenzo[a]quinolizine-3-carboxylic acid] | 220 nM |
| CCC1Cc2cc(OCCO)c(OC)cc2-c2cc(=O)c(C(=O)O)cn21 (stereo not drawn) [Example 21, 6-ethyl-9-(2-hydroxyethoxy)-10-methoxy-2-oxo-6,7-dihydrobenzo[a]quinolizine-3-carboxylic acid] | 450 nM |
| CCC1Cc2cc(OCCCO)c(OC)cc2-c2cc(=O)c(C(=O)O)cn21 (stereo not drawn) [Example 25, 6-ethyl-9-(3-hydroxypropoxy)-10-methoxy-2-oxo-6,7-dihydrobenzo[a]quinolizine-3-carboxylic acid] | 155 nM |
| CCC1Cc2cc(OCCn3ccnc3)c(OC)cc2-c2cc(=O)c(C(=O)O)cn21 (stereo not drawn) [Example 26, 6-ethyl-9-(2-imidazol-1-ylethoxy)-10-methoxy-2-oxo-6,7-dihydrobenzo[a]quinolizine-3-carboxylic acid] | 1650 nM |
| CCC1Cc2cc(OCCN3CCCC3)c(OC)cc2-c2cc(=O)c(C(=O)O)cn21 (stereo not drawn) [Example 51, 6-ethyl-10-methoxy-2-oxo-9-(2-pyrrolidin-1-ylethoxy)-6,7-dihydrobenzo[a]quinolizine-3-carboxylic acid] | 3900 nM |
| CCC1Cc2cc(OCCCC#N)c(OC)cc2-c2cc(=O)c(C(=O)O)cn21 (stereo not drawn) [Example 52, 9-(3-cyanopropoxy)-6-ethyl-10-methoxy-2-oxo-6,7-dihydrobenzo[a]quinolizine-3-carboxylic acid] | 170 nM |
| CCC1Cc2cc(OCCS(C)(=O)=O)c(OC)cc2-c2cc(=O)c(C(=O)O)cn21 (stereo not drawn) [Example 53, 6-ethyl-10-methoxy-9-(2-methylsulfonylethoxy)-2-oxo-6,7-dihydrobenzo[a]quinolizine-3-carboxylic acid] | 1540 nM |
| CCC1Cc2cc(OCCN3CCCC3=O)c(OC)cc2-c2cc(=O)c(C(=O)O)cn21 (stereo not drawn) [Example 54, 6-ethyl-10-methoxy-2-oxo-9-[2-(2-oxopyrrolidin-1-yl)ethoxy]-6,7-dihydrobenzo[a]quinolizine-3-carboxylic acid] | 130 nM |
| CC[C@@H]1Cc2cc(OCCN3CCCC3=O)c(OC)cc2-c2cc(=O)c(C(=O)O)cn21 [Example 55, (+)-6-ethyl-10-methoxy-2-oxo-9-[2-(2-oxopyrrolidin-1-yl)ethoxy]-6,7-dihydrobenzo[a]quinolizine-3-carboxylic acid] | 720 nM |
| CCC1Cc2cc(OCCNS(C)(=O)=O)c(OC)cc2-c2cc(=O)c(C(=O)O)cn21 (stereo not drawn) [Example 56, 6-ethyl-9-[2-(methanesulfonamido)ethoxy]-10-methoxy-2-oxo-6,7-dihydrobenzo[a]quinolizine-3-carboxylic acid] | 3300 nM |
| CCC1Cc2cc(OCC3(C#N)CC3)c(OC)cc2-c2cc(=O)c(C(=O)O)cn21 (stereo not drawn) [Example 57, 9-[(1-cyanocyclopropyl)methoxy]-6-ethyl-10-methoxy-2-oxo-6,7-dihydrobenzo[a]quinolizine-3-carboxylic acid] | 170 nM |
| CC1Cc2cccc(Br)c2-c2cc(=O)c(C(=O)O)cn21 (stereo not drawn) [Example 60, 11-bromo-6-methyl-2-oxo-6,7-dihydrobenzo[a]quinolizine-3-carboxylic acid] | 1240 nM |
| C[C@@H]1Cc2cc(Br)ccc2-c2cc(=O)c(C(=O)O)cn21 [Example 61, (+)-9-bromo-6-methyl-2-oxo-6,7-dihydrobenzo[a]quinolizine-3-carboxylic acid] | 6020 nM |
| CC1Cc2cc(N3CCN(C(=O)OC(C)(C)C)CC3)ccc2-c2cc(=O)c(C(=O)O)cn21 (stereo not drawn) [Example 62, 9-(4-tert-butoxycarbonylpiperazin-1-yl)-6-methyl-2-oxo-6,7-dihydrobenzo[a]quinolizine-3-carboxylic acid] | 990 nM |
| CC1Cc2cc(N(C)Cc3ccccc3)ccc2-c2cc(=O)c(C(=O)O)cn21 (stereo not drawn) [Example 63, 9-[benzyl(methyl)amino]-6-methyl-2-oxo-6,7-dihydrobenzo[a]quinolizine-3-carboxylic acid] | 7180 nM |
| CNc1cccc2c1-c1cc(=O)c(C(=O)O)cn1C(C)C2 (stereo not drawn) [Example 64, 6-methyl-11-(methylamino)-2-oxo-6,7-dihydrobenzo[a]quinolizine-3-carboxylic acid] | 24900 nM |
